Measured values from patent US6613931B1 (priority 1999, dated 2003).

Key:
Lemna paucicostata = experiment: Herbicidal action: growth inhibition of duck weed (Lemna); assay type: in vivo; conditions: Lemna aequinoctialis, increase in leaf area after 8-10 days, 25° C., permanent light, read-out: Growth inhibition (% relative to the control)
Description: The herbicidal action of the compounds according to the invention is investigated using the representative test model below. The effect of the test substances on the growth of duck weed is determined by the following method:
The duct weed Lemna paucicostata was grown under sterile conditions and 250 ml glass vessels containing 100 ml of inorganic nutrient solution and supplemented with 1% sucrose, as described by Grossmann et al., Pesticide Science 35, (1992), 283-289. At the beginning of the test, 150 μl of a solution of active compound in acetone (stock solution: 100-fold concentrated) were pipetted into Petri dishes (diameter 6 cm, height 1.5 cm; Greiner, Frickenhausen) containing 15 ml of nutrient solution. (without added sucrose). Only the solvent component of the active compound solution was added to the nutrient solution for the control tests. Then, 4 Lemna plants were introduced into each dish, the dishes were covered with lids and incubated under permanent light conditions at 25° C. After 8-10 days, the increase in leaf area was determined using an imaging apparatus (Imago, Compulog Computer Syst., Böblingen) as growth parameter, and this was used to calculate the growth inhibition as a percentage relative to the control.

Plasmopara viticola = experiment: Fungicidal action: activity against Plasmopara viticola on grapevines (persistency); assay type: in vivo; conditions: grapevines c.v. Müller-Thurgau, inoculated 7 days after spraying, undersides of leaves assessed visually, untreated control 90
Text: Activity Against Plasmopara viticola
Leaves of potted grapevines c.v. “Müller-Thurgau” were sprayed to run off point with an aqueous preparation of active compound which had been prepared using a stock solution comprising 10% of active compound, 63% of cyclohexanone and 27% of emulsifier. In order to be able to assess the persistency of the substances, the plants were kept for 7 days in a greenhouse after the spray coating had dried on. Only then were the leaves inoculated with an aqueous zoospore suspension of Plasmopara viticola. The grapevines were then initially kept in a water vapor-saturated chamber at 24° C. for 48 hours and then in a greenhouse at 20 and 30° C. for 5 days. After this period of time, the plants were once more kept in a humid chamber for 16 hours to promote sporangiophore eruption. The extent of the infection on the undersides of the leaves was then determined visually.

| SMILES | inhibition at 1 µM (Lemna paucicostata; concentration 1 μmolar) [%] | inhibition at 10 µM (Lemna paucicostata; concentration 10 μmolar) [%] | inhibition at 100 µM (Lemna paucicostata; concentration 100 μmolar) [%] | % infection of the leaves after application of an aqueous preparation containing 250 ppm of active compound (Plasmopara viticola) [%] |
| --- | --- | --- | --- | --- |
| N#CC(C(=O)Nc1ccc(Cl)c(Cl)c1)c1ccccc1 (stereo not shown) [A, N-(3,4-dichlorophenyl)-2-cyano-2-phenylacetamide] | 40 | 93 | 100 | – |
| N#CC(C(=O)Nc1cccc(Cl)c1)c1ccccc1 (stereo not shown) [No. 2, N-(3-chlorophenyl)-2-cyano-2-phenylacetamide] | – | – | – | 0 |
